Counter-ions that a name gives are not always drawn.
Tests used:
[1] = molecular target: T1, sigma binding site (Rattus norvegicus, UniProt Q9R0C9); test: Sigma binding affinity using [^3 H]-(+)-3-(3'-hydroxyphenyl)-N-(1'-propyl)-piperdine (3PPP); conditions: [^3 H]PPP radioligand
T1 construct: from tissue
Experimental: (§1) Sigma binding affinities are measured using [^3 H]-(+)-3-(3'-hydroxyphenyl)-N-(1'-propyl)-piperdine, referred to in the following Table I as 3PPP. This test is carried out according to the procedures of B. L. Largent, et al, Proc. Natl. Acad. Sci., USA, 1984; 81:5618. The ability of the compounds to bind muscarinic antagonist sites was determined invitro using [^3 H]quinuclidinyl benzylate (RQNB) according to the procedure of M. Watson, J. Pharmacol. Exp. Ther. 1986; 237-411.

[2] = system: muscarinic antagonist sites; test: Binding to muscarinic antagonist sites using [^3 H]quinuclidinyl benzylate (RQNB); conditions: [^3 H]quinuclidinyl benzylate radioligand
Experimental: as §1

T1 sequence (Q9R0C9 whole entry): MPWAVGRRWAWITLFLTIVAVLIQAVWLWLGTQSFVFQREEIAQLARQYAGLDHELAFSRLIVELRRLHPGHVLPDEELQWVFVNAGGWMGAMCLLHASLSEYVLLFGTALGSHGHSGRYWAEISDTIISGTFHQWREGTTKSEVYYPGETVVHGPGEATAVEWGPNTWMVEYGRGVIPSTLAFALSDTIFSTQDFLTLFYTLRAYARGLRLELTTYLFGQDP

| Structure (SMILES) | IC50 [1] [nM] | RQNB % Inhibition @ 1 μM [2] [%] |
| --- | --- | --- |
| CCCN1CCC=C(c2cc(-c3ccc(OC)cc3)no2)C1 [Example 14A, 3-(4'-Methoxyphenyl)-5-[3'-(1'-propyl-1', 2', 5', 6'-tetrahydropyridinyl)]isoxazole oxalate] | 10000 | 11 |
| CCCN1CCC=C(c2cc(-c3cccc(OC)c3)no2)C1 [Example 6A, 3-(3'-Methoxyphenyl)-5-[3'-(1'-propyl-1', 2', 5', 6'-tetrahydropyridinyl)]isoxazole oxalate] | 4 | 15 |
| CCCN1CCC=C(c2cc(-c3ccccc3)on2)C1 [Example 4B, 3-[3'-(1'-propyl-1', 2', 5', 6'-tetrahydropyridinyl)]-5-phenylisoxazole oxalate] | 8.8 | 4 |
| CCCN1CCC=C(C2=NOC(c3ccc(OC)cc3)C2)C1 (stereo not shown) [Example 2, 3-[3'-(1'-Propyl-1', 2', 5', 6'-tetrahydropyridinyl) ]-5-(4'-methoxyphenyl)-2-isoxazoline] | 39.1 | 7 |
| CCCN1CCC=C(c2cc(-c3ccc(OC)cc3)on2)C1 [Example 14B, 3-[3'-(1'-propyl-1', 2', 5', 6'-tetrahydropyridinyl)]-5-(4'-methoxyphenyl)isoxazole oxalate] | 1470 | 9 |
| CCCN1CCC=C(c2cc(-c3ccc(C)cc3)on2)C1 [Example 5B, 3-[3'-(1'-propyl-1', 2', 5', 6'-tetrahydropyridinyl)]-5-(4'-methylphenyl)isoxazole oxalate] | 0.62 | 6 |
| CCCN1CCC=C(c2cc(-c3ccc(C)cc3)no2)C1 [Example 5A, 3-(4'-Methylphenyl)-5-[3'-(1'-propyl-1', 2', 5', 6'-tetrahydropyridinyl)]isoxazole oxalate] | 0.067 | 10 |
| CCCN1CCC=C(c2cc(-c3ccccc3)no2)C1 [Example 4A, 3-phenyl-5-[3'-(1'-propyl-1', 2', 5', 6'-tetrahydropyridinyl)]isoxazole oxalate] | 0.78 | 10 |
| CCCN1CCC=C(c2cc(-c3ccccc3OC)on2)C1 [Example 9B, 3-[3'-(1'-propyl-1', 2', 5', 6'-tetrahydropyridinyl)]-5-(2'-methoxyphenyl)isoxazole oxalate] | 10000 | 12 |
| CCCN1CCC=C(c2cc(-c3ccccc3C)no2)C1 [Example 8A, 3-(2'-Methylphenyl)-5-[3'-(1'-propyl-1', 2', 5', 6'-tetrahydropyridinyl)]isoxazole oxalate] | 3640 | 40 |
| CCCN1CCC=C(c2cc(-c3cccc(C)c3)no2)C1 [Example 7A, 3-(3'-Methylphenyl)-5-[3'-(1'-propyl-1', 2', 5', 6'-tetrahydropyridinyl)]isoxazole oxalate] | 0.45 | 10 |
| CCCN1CCC=C(c2cc(-c3cccc(OC)c3)on2)C1 [Example 6B, 3-[3'-(1'-propyl-1', 2', 5', 6'-tetrahydropyridinyl)]-5-(3'-methoxyphenyl)isoxazole oxalate] | 0.1 | 7 |
| CCCN1CCC=C(c2cc(-c3ccccc3OC)no2)C1 [Example 9A, 3-(2'-Methoxyphenyl)-5-[3'-(1'-propyl-1', 2', 5', 6'-tetrahydropyridinyl)]isoxazole oxalate] | > 10000 | 23 |
| CCCN1CCC=C(c2cc(-c3ccccc3C)on2)C1 [Example 8B, 3-[3'-(1'-propyl-1', 2', 5', 6'-tetrahydropyridinyl)]-5-(2'-methylphenyl)isoxazole oxalate] | 546 | 12 |
| CCCN1CCC=C(C2=NOC(c3ccccc3)C2)C1 (stereo not shown) [Example 1, 3-[3'-(1'-propyl-1', 2', 5', 6'-tetrahydropyridinyl)]-5-phenyl-2-isoxazoline] | 7.05 | 10 |
| CCCN1CCC=C(C2=NOC(c3ccc(Cl)cc3)C2)C1 (stereo not shown) [Example 3, 3-[3'-(1'-Propyl-1', 2', 5', 6'-tetrahydropyridinyl)]-5-(4'-chlorophenyl)-2-isoxazoline] | 1.03 | 22 |
| CCCN1CCC=C(c2cc(-c3cccc(C)c3)on2)C1 [Example 7B, 3-[3'-(1'-propyl-1', 2', 5', 6'-tetrahydropyridinyl)]-5-(3'-methylphenyl)isoxazole oxalate] | 9.9 | 10 |

Reference: patent US5330994A, “Tetrahydropyridine isoxazoline derivatives” (Warner-Lambert Company, priority 1992, dated 1994)
